In patent US11040083B2, “Polypeptides comprising vinculin binding sites for the treatment of proliferation and/or adhesion related diseases” (PARIS SCIENCES ET LETTRES—QUARTIER LATIN, priority 2015, dated 2021):
No end group written: not given here.

Legend:
[1] = target: T1, talin H1-H4 (Homo sapiens, UniProt Q9Y490); experiment: Isothermal titration calorimetry; type: binding; conditions: for N (stoichiometry): ITC non-linear fit; for N (stoichiometry) / ΔG free enthalpy / ΔH enthalpy / −TΔS entropic contribution: 25° C.
T1 sequence (Q9Y490 482-636): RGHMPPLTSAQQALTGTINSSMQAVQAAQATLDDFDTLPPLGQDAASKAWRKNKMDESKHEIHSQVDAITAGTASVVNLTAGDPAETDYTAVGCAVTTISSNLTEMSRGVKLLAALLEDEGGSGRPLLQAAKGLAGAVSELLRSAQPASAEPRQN
Experimental: Vinculin, IpaA proteins and peptides were extensively dialyzed in binding buffer (25 mM Tris pH 7.4, 100 mM NaCl and 1 mM β-Mercaptoethanol). The final concentration of all proteins/peptides was measured using a BCA test (Thermo Scientific). Talin-IpaA binding was measured by microcalorimetry using an ITC200 calorimeter (MicroCal) at 25° C. 200 μL of 20-100 μM of talin H1-H4 protein was added to the cell and binding in the presence of different concentrations of IpaA VBS1, VBS2 or VBS3 peptides was measured. In other experiments, 200 μL of a 16 μM equimolar mix of A483:HVD1 was incubated for one hour at room temperature prior to addition to the cell. Binding to talin H1-H4 (100 μM) was measured. Typically, 20-40 injections of 2 μL of ligand were made with intervals of 320 seconds between each addition, with a reference power of 12 μcal/sec. Data were analyzed using the MicroCal software provided by manufacturer.

[2] = target: T1, talin H1-H4; experiment: Native-PAGE gel shift; type: binding
Experimental: Talin H1-H4 and IpaA peptides/proteins were incubated in binding buffer for 1 hour at 4° C. After incubation, the protein/peptides were mixed in a 2× Native loading buffer (62.5 mM Tris pH 6.8, Glycerol 25%) and separated by Tris-Glycine Native-PAGE electrophoresis. Gels were stained using standard colloidal Coomassie stain.
Talin H1-H4 and IpaA peptides/proteins at different molar ratios were incubated in binding buffer (25 mM Tris pH 7.4, 100 mM NaCl and 1 mM β-Mercaptoethanol) for 1 hour at 4° C. After incubation, the protein/peptides were mixed in a 2× Native loading buffer (62.5 mM Tris pH 6.8, Glycerol 25%) and separated by Tris-Glycine Native-PAGE electrophoresis. The Native PAGE electrophoresis gels were stained using standard colloidal Coomassie stain.

[3] = test system: HeLa cells; experiment: Immunofluorescence of V5-tagged IpaA derivatives and talin; type: cell-based; conditions: V5 epitope and talin staining
From the text: FIG. 8 is a set of photographs showing the interaction between IpaA VBS3 and talin (H1-H4). A, IpaA constructs used in this study. The VBSs are depicted as boxes in IpaA full length (IpaA-FL), with the residue number corresponding to the first residue of the corresponding VBS. The first and last IpaA residues are annotated for the IpaA truncated derivatives. V5: V5 epitope. B, HeLa cells were transfected with IpaA derivatives, fixed and processed for immunofluorescence staining of the V5 epitope and talin. Representative fluorescence images are shown, with a larger magnification of the inset boxed in the left panels. Scale bar=5 μm. C, Native PAGE analysis of IpaA VBSs and talin H1-H4 interaction. 1. Purified talin H1-H4 was incubated with the indicated IpaA VBS peptides and analyzed using 6-18% gradient native PAGE. The talin H1-H4: IpaA VBS molar ratio is indicated, with 1 corresponding to a final concentration of 25 μM. The migration of talin H1-H4 and of the talin H1-H4:IpaA VBS3 complex are indicated.

[4] = test system: melanocytes; experiment: Time lapse cell migration; type: cell-based; conditions: 6 movies per sample, preliminary
[5] = Size exclusion chromatography, hydrodynamic radius; type: physicochemical
Experimental: The purified proteins HVD1, A483, A524 and Talin H1-H4 were used at an equimolar concentration of 20 μM and incubated at 4° C. for one hour in binding buffer. The protein mixtures (200 μL) were injected in a FPLC chromatography system (FPLC Pharmacia) at 16° C. in a Superdex 75 HR 10/30 column (GE Healthcare) previously equilibrated with 10 volumes of binding buffer. The SEC system was calibrated with a Low Molecular Weight Gel Filtration Kit (ref. 17-0442-01, GE Healthcare) and the hydrodynamic radius (Angstroms) of the reference proteins (BSA, OVA, ChyA and RibA) correlated with the elution volume (Ve) using an Euler exponential equation: Hydrodynamic radius (Ang)=210.46 e^−0.189 Ve (mL), with a correlation squared coefficient of R^2=0.9973. Fractions corresponding to elution volume 8-10 mLs were recovered, and analyzed by SDS-PAGE using 15% polyacrylamide gels.

CC[C@H](C)[C@H](N)C(=O)N[C@@H](Cc1ccc(O)cc1)C(=O)N[C@@H](CCCCN)C(=O)N[C@@H](C)C(=O)N[C@@H](C)C(=O)N[C@@H](CCCCN)C(=O)N[C@@H](CC(=O)O)C(=O)N[C@H](C(=O)N[C@H](C(=O)N[C@H](C(=O)N[C@@H](CO)C(=O)N[C@@H](CC(C)C)C(=O)N[C@@H](CO)C(=O)N[C@@H](CCCCN)C(=O)N[C@H](C(=O)N[C@@H](CC(C)C)C(=O)N[C@@H](CCCCN)C(=O)N[C@@H](CC(N)=O)C(=O)N[C@H](C(=O)N[C@@H](CC(N)=O)C(=O)N[C@@H](CCCCN)C(=O)N[C@@H](CC(=O)O)C(=O)O)[C@@H](C)CC)C(C)C)[C@@H](C)O)[C@@H](C)O)C(C)C [IpaA VBS1]
N (stoichiometry) [1]: 1.22
ΔG free enthalpy ([1]; ITC): -6.575 kcal/mol
ΔH enthalpy ([1]; ITC): -4.104 kcal/mol
−TΔS entropic contribution ([1]; ITC): -2.471 kcal/mol
formation of a complex with talin H1-H4 [2]: did not induce the formation

CC[C@H](C)[C@H](NC(=O)[C@H](CC(C)C)NC(=O)[C@H](CO)NC(=O)[C@@H](NC(=O)[C@H](CC(C)C)NC(=O)[C@H](CC(N)=O)NC(=O)[C@H](CO)NC(=O)[C@H](CC(C)C)NC(=O)[C@H](CO)NC(=O)[C@H](CC(N)=O)NC(=O)[C@@H](NC(=O)[C@@H](NC(=O)[C@H](CCCCN)NC(=O)[C@H](CCCCN)NC(=O)[C@H](CO)NC(=O)[C@H](C)NC(=O)[C@H](CCC(=O)O)NC(=O)[C@H](Cc1ccccc1)NC(=O)[C@@H](NC(=O)[C@@H](NC(=O)[C@H](CCC(=O)O)NC(=O)[C@H](CCCNC(=N)N)NC(=O)[C@@H](N)[C@@H](C)O)[C@@H](C)O)[C@@H](C)CC)C(C)C)[C@@H](C)O)[C@@H](C)CC)C(=O)NCC(=O)N[C@H](C(=O)O)[C@@H](C)O [IpaA VBS3]
N (stoichiometry) [1]: 0.893
ΔG free enthalpy ([1]; ITC): -9.219 kcal/mol
ΔH enthalpy ([1]; ITC): -6.393 kcal/mol
−TΔS entropic contribution ([1]; ITC): -2.826 kcal/mol
ΔG free enthalpy ([1]; ITC, listed as IpaA VBS3/TBS): -9.07 ± 0.103 kcal/mol
concentration at which the complex with talin H1-H4 / migration shift could be detected [2]: 25 µM

IYEKAKEVSSALSKVLSKI (IpaA VBS2; listed as Shigella flexneri) [purified synthetic IpaA VBS peptide]
interaction with talin H1-H4 by ITC ([1]; ITC): did not show any interaction
formation of a complex with talin H1-H4 [2]: did not induce the formation

YTKKELIECARRVSEKVSHVLAALQA [talin H46, reference compound]
Kd [1]: 60 nM
ΔH enthalpy ([1]; ITC): -16.97 kcal/mol
−TΔS entropic contribution ([1]; ITC): +7200 cal/mol
formation of a complex with talin H1-H4 [2]: formed a complex

B1: IpaA 7-422: V5-tagged IpaA truncated derivative in which the IpaA VBS3 was deleted (protein)
chain: TQAPTFLYKATSPSSTEYSELKSKISDIHSSQTSLKTPASVSEKENFATSFNQKCLDFLFSSSGKEDVLRSIYSNSMNAYAKSEILEFSNVLYSLVHQNGLNFENEKGLQKIVAQYSELIIKDKLSQDSAFGPWSAKNKKLHQLRQNIEHRLALLAQQHTSGEALSLGQKLLNTEVSSFIKNNILAELKLSNETVSSLKLDDLVDAQAKLAFDSLRNQRKNTIDSKGFGIGKLSRDLNTVAVFPELLRKVLNDILEDIKDSHPIQDGLPTPPEDMPDGGPTPGANEKTSQPVIHYHINNDNRTYDNRVFDNRVYDNSYHENPENDAQSPTSQTNDLLSRNGNSLLNPQRALVQKVTSVLPHSISDTVQTFANNSALEKVFNHTPDNSDGIGSDLLTTSSQERSANNSLSRGHRPLN
modifications: left off: small tags and cut ends
notes: V5-tagged IpaA truncated derivative in which the IpaA VBS3 was deleted
localization relative to talin [3]: did not co-localize with talin

B2: GFP-A524 (protein)
chain: KSKDITKSTTEHRINNKLKVTDANIRNYVTETNADTIDKNHAIYEKAKEVSSALSKVLSKIDDTSAELLTDDISDLKNNNDITAENNNIYKAAKDVTTSLSKVLKNINKD
modifications: left off: large carriers
effect on cell migration / motility [4]: did not drastically alter the motility

B3: HVD1: vinculin derivative containing only amino acid residues 1 to 257 of HV (D1 domain) (protein, listed as Homo sapiens)
chain: MPVFHTRTIESILEPVAQQISHLVIMHEEGEVDGKAIPDLTAPVAAVQAAVSNLVRVGKETVQTTEDQILKRDMPPAFIKVENACTKLVQAAQMLQSDPYSVPARDYLIDGSRGILSGTSDLLLTFDEAEVRKIIRVCKGILEYLTVAEVVETMEDLVTYTKNLGPGMTKMAKMIDERQQELTHQEHRVMLVNSMNTVKELLPVLISAMKIFVTTKNSKNQGIEEALKNRNFTVEKMSAEINEIIRVLQLTSWDEDA
modifications: Vinculin domain D1 (HVD1)
Radiusg (hydrodynamic radius of a globular protein with the same MW) [5]: 24.36 Ang
Radiusm/Radiusg (RH/RG ratio) [5]: 1.16
Radiusm (estimated hydrodynamic radius) ([5]; SEC Superdex 75, 20 μM equimolar): 28.25 Ang

B4: IpaA 7-522: V5-tagged IpaA truncated derivative (protein)
chain: TQAPTFLYKATSPSSTEYSELKSKISDIHSSQTSLKTPASVSEKENFATSFNQKCLDFLFSSSGKEDVLRSIYSNSMNAYAKSEILEFSNVLYSLVHQNGLNFENEKGLQKIVAQYSELIIKDKLSQDSAFGPWSAKNKKLHQLRQNIEHRLALLAQQHTSGEALSLGQKLLNTEVSSFIKNNILAELKLSNETVSSLKLDDLVDAQAKLAFDSLRNQRKNTIDSKGFGIGKLSRDLNTVAVFPELLRKVLNDILEDIKDSHPIQDGLPTPPEDMPDGGPTPGANEKTSQPVIHYHINNDNRTYDNRVFDNRVYDNSYHENPENDAQSPTSQTNDLLSRNGNSLLNPQRALVQKVTSVLPHSISDTVQTFANNSALEKVFNHTPDNSDGIGSDLLTTSSQERSANNSLSRGHRPLNIQNSSTTPPLHPEGVTSSNDNSSDTTKSSASLSHRVASQINKFNSNTDSKVLQTDFLSRNGDTYLTRETIFEASKKVTNSLSNLISLIGTKSGTQERELQ
modifications: left off: small tags and cut ends
notes: V5-tagged IpaA truncated derivative
localization relative to talin [3]: localized to focal adhesions and other talin-containing structures
